Experimental data: the Deep4Chem optical property database

Assay: photoluminescence quantum yield (fraction); solvent given as SMILES
[1] = in O=P(c1ccccc1)(c1ccccc1)c1ccccc1Oc1ccccc1P(=O)(c1ccccc1)c1ccccc1

Which photoluminescence quantum yield (in C1CCCCC1) does the source give for `CNc1cccc2c1-c1ccccc1C2=O` here?
Its photoluminescence quantum yield is 0.094.

What about the photoluminescence quantum yield (in CC#N) of the same compound?
The photoluminescence quantum yield was 0.0051.

What about the photoluminescence quantum yield (in CCO) of the same compound?
Its photoluminescence quantum yield is 0.00014.

And the photoluminescence quantum yield (in c1ccccc1)?
The photoluminescence quantum yield was 0.063.

What does the source list for `C/C(=C\c1ccc(Cl)cc1)c1nc2ccccc2s1`?
photoluminescence quantum yield (in C1CCCCC1): 0.03; photoluminescence quantum yield (in CO): 0.005

Which photoluminescence quantum yield (in C1CCOC1) does the source give for `CC1=[N+]2C(=C(c3ccccc3)c3ccc(/C=C/c4ccc(C(=C(c5ccccc5)c5ccccc5)c5ccccc5)cc4)n3[B-]2(F)F)C=C1` here?
Its photoluminescence quantum yield is 0.746.

What does the source list for `Cc1ccc2c(c1)c1cc(C)ccc1n2-c1cccc(-n2c3ccc(C)cc3c3cc(C)ccc32)c1C#N`?
photoluminescence quantum yield (in Cc1ccccc1): 0.34; photoluminescence quantum yield [1]: 0.66

With `CN(C)c1ccc(C=C/C=C/C=C/c2ccc(C#N)cc2)cc1` as the compound, how does the photoluminescence quantum yield (in C1CCOC1) read?
The photoluminescence quantum yield was 0.112.

And the photoluminescence quantum yield (in CC#N)?
The photoluminescence quantum yield was 0.261.

What about the photoluminescence quantum yield (in CCCC#N) of the same compound?
The photoluminescence quantum yield was 0.142.

What about the photoluminescence quantum yield (in CCCCCC) of the same compound?
The photoluminescence quantum yield was 0.072.

And the photoluminescence quantum yield (in CCCCOCCCC)?
The photoluminescence quantum yield was 0.081.

And the photoluminescence quantum yield (in CCO)?
The photoluminescence quantum yield was 0.211.

What about the photoluminescence quantum yield (in CCOCC) of the same compound?
The photoluminescence quantum yield was 0.092.

With `Cc1ccc(/C2=c3\cc/c(o3)=C(\c3ccc(C)cc3)c3ccc([nH]3)-c3ccc4n3[B-](F)(F)[N+]3=C(C=CC3=C4c3cccs3)c3ccc2[nH]3)cc1` as the compound, how does the photoluminescence quantum yield (in ClC(Cl)Cl) read?
Its photoluminescence quantum yield is 0.09.

For `CCn1c2ccccc2c2cc(C#Cc3cc(C#Cc4ccc5c(c4)c4ccccc4n5CC)nc(SC)n3)ccc21`, which photoluminescence quantum yield (in C1CCOC1) is on record?
Its photoluminescence quantum yield is 0.61.

And the photoluminescence quantum yield (in CCOC(C)=O)?
The photoluminescence quantum yield was 0.62.

What about the photoluminescence quantum yield (in CN(C)C=O) of the same compound?
The photoluminescence quantum yield was 0.56.

And the photoluminescence quantum yield (in Cc1ccccc1)?
Its photoluminescence quantum yield is 0.53.

And the photoluminescence quantum yield (in ClCCl)?
Its photoluminescence quantum yield is 0.64.

Which photoluminescence quantum yield (in ClCCl) does the source give for `COc1ccc(-c2cc3c(ccc4sc(/C=C/c5cccs5)cc43)s2)cc1` here?
Its photoluminescence quantum yield is 0.28.

With `CCCCC1=Cc2c3ccc4cccc5ccc(c6cc(-c7ccc(N(c8ccccc8)c8ccccc8)cc7)n(c26)P1(=O)c1ccccc1)c3c45` (configuration not stated) as the compound, how does the photoluminescence quantum yield (in C1CCCCC1) read?
Its photoluminescence quantum yield is 0.56.

And the photoluminescence quantum yield (in C1CCOC1)?
Its photoluminescence quantum yield is 0.49.

What about the photoluminescence quantum yield (in C1COCCO1) of the same compound?
Its photoluminescence quantum yield is 0.61.

What about the photoluminescence quantum yield (in CC#N) of the same compound?
Its photoluminescence quantum yield is 0.39.

What about the photoluminescence quantum yield (in CC(C)=O) of the same compound?
The photoluminescence quantum yield was 0.52.

What about the photoluminescence quantum yield (in CO) of the same compound?
Its photoluminescence quantum yield is 0.29.

What about the photoluminescence quantum yield (in Cc1ccccc1) of the same compound?
Its photoluminescence quantum yield is 0.61.

What about the photoluminescence quantum yield (in ClC(Cl)Cl) of the same compound?
Its photoluminescence quantum yield is 0.58.

What about the photoluminescence quantum yield (in ClCCl) of the same compound?
Its photoluminescence quantum yield is 0.62.

For `CC1(C)c2ccccc2N(c2ccccc2)c2ccc(-c3nc(-c4ccccc4)nc(-c4ccccc4)n3)cc21`, which photoluminescence quantum yield [1] is on record?
The photoluminescence quantum yield was 0.55.

Which photoluminescence quantum yield (in CCCCCC) does the source give for `Cc1ccc2ccc3c(C)ccc4ccc1c2c43` here?
The photoluminescence quantum yield was 0.52.

And the photoluminescence quantum yield (in CO)?
Its photoluminescence quantum yield is 0.56.

What about the photoluminescence quantum yield (in ClCCl) of the same compound?
The photoluminescence quantum yield was 0.4.

Which results are given for `CNCCCC1c2ccccc2C=Cc2ccccc21`?
photoluminescence quantum yield (in CC#N): 0.56; photoluminescence quantum yield (in CO): 0.55; photoluminescence quantum yield (in O): 0.62

With `N#Cc1nc(N(Cc2ccccc2F)Cc2ccccc2F)c(C#N)nc1N(Cc1ccccc1F)Cc1ccccc1F` as the compound, how does the photoluminescence quantum yield (in ClC(Cl)Cl) read?
The photoluminescence quantum yield was 0.79.

With `C/C=C/C1=NC(=C\c2ccc([O-])cc2)/C(=O)N1C` as the compound, how does the photoluminescence quantum yield (in O) read?
The photoluminescence quantum yield was 0.0006.

Which photoluminescence quantum yield (in C1CCCCC1) does the source give for `CCC(C)(C)c1ccc2c(c1)C(CC)(CC)c1cc(-c3ccc(-c4ccc5c(c4)C(CC)(CC)c4cc(C(C)(C)CC)ccc4-5)cc3)ccc1-2` here?
The photoluminescence quantum yield was 1.

For `CC1=[N+]2C(=C(c3ccc(C(=C(c4ccccc4)c4ccccc4)c4ccccc4)cc3)c3ccc(C)n3[B-]2(F)F)C=C1`, which photoluminescence quantum yield (in C1CCOC1) is on record?
Its photoluminescence quantum yield is 0.038.

For `C[Si](C)(c1cccc2ccccc12)[Si](C)(C)c1c2ccccc2cc2ccccc12`, which photoluminescence quantum yield (in C1CCCCC1) is on record?
The photoluminescence quantum yield was 0.67.

And the photoluminescence quantum yield (in CC#N)?
Its photoluminescence quantum yield is 0.21.

For `c1ccc(-c2cc(-c3ccccc3)cc(-c3ccc4c(c3)C3(c5cc(-c6cc(-c7ccccc7)cc(-c7ccccc7)c6)ccc5-4)c4ccccc4-c4c3c3c5ccccc5ccc3c3ccccc43)c2)cc1`, which photoluminescence quantum yield (in Cc1ccccc1) is on record?
The photoluminescence quantum yield was 0.59.

Which photoluminescence quantum yield (in CS(C)=O) does the source give for `CCCCCCCCn1c2ccccc2c(=O)c2ccccc21` here?
Its photoluminescence quantum yield is 0.66.

Which photoluminescence quantum yield (in CCO) does the source give for `Nc1cc2oc3cc(O)c(F)cc3c(=O)c2cc1F` here?
The photoluminescence quantum yield was 0.44.

Which photoluminescence quantum yield (in ClCCl) does the source give for `COc1cc2c(cc1OC)C1=C[C@H](c3ccc(C)cc3)C3(C(C#N)=C(C#N)N1CC2)c1cc(Cl)ccc1-c1ccc(Cl)cc13` here?
The photoluminescence quantum yield was 0.00053.

With `C(=C(c1ccccc1)c1ccccc1)c1ccc(C=C(c2ccccc2)c2ccccc2)cc1` as the compound, how does the photoluminescence quantum yield (in C1CCOC1) read?
Its photoluminescence quantum yield is 0.017.

For `CC(C)=CCN1C(=O)c2cccc3c2c(cc2nc(C)oc23)C1=O`, which photoluminescence quantum yield (in CCO) is on record?
Its photoluminescence quantum yield is 0.011.

With `COc1ccc(C2=[N+]3C(=Nc4c(-c5ccccc5-c5ccc(C(C)(C)C)cc5)cc(-c5ccc(OC)cc5)n4[B-]3(F)F)c3c2c2cc(C(C)(C)C)ccc2c2ccccc32)cc1` as the compound, how does the photoluminescence quantum yield (in Cc1ccccc1) read?
Its photoluminescence quantum yield is 0.38.

For `O=[N+]([O-])c1ccc(C#Cc2ccccc2C#Cc2ccc([N+](=O)[O-])cc2)cc1`, which photoluminescence quantum yield (in CC#N) is on record?
The photoluminescence quantum yield was 0.

Which photoluminescence quantum yield (in ClCCl) does the source give for `COc1ccc(C#Cc2nc3ccccc3nc2-c2ccn(-c3ccccc3)c2)cc1` here?
The photoluminescence quantum yield was 0.24.

Which results are given for `O=Cc1ccc(-c2cccc(-c3nc4ccccc4s3)c2O)s1`?
photoluminescence quantum yield (in CCO): 0.123; photoluminescence quantum yield (in ClCCl): 0.164; photoluminescence quantum yield (in O): 0.02

Which results are given for `CC1(C)C(/C=C/C=C/c2cc3ccc(O)cc3oc2=O)=[N+](CCCS(=O)(=O)[O-])c2ccccc21`?
photoluminescence quantum yield (in CS(C)=O): 0.013; photoluminescence quantum yield (in O): 0.013

Which photoluminescence quantum yield (in ClCCl) does the source give for `COC(=O)/C=C/C1=CC2=C(c3c(C)cc(C)cc3C)c3cccn3[B-](F)(F)[N+]2=C1` here?
Its photoluminescence quantum yield is 0.34.

With `Nc1cccc2cc3ccccc3cc12` as the compound, how does the photoluminescence quantum yield (in C1CCCCC1) read?
Its photoluminescence quantum yield is 0.8.

With `COc1ccc2cc3cccc[n+]3cc2c1` as the compound, how does the photoluminescence quantum yield (in O) read?
The photoluminescence quantum yield was 0.2.
